# Laboratory results taken from US20060257481A1, “Sustained release formulation and dosing schedule of leukotriene synthesis inhibitor for human therapy” (deCODE Genetics ehf., priority 2005, published 2006).
# Where “and” joins values, the source holds several entries; their conditions need not be identical. Identical values can stand only once. Like-named read-outs stand apart in the source and are kept apart here.
# How the values were obtained:
# clinical = details: human, in vivo
# Method: Measurements of plasma DG-031 can be carried out by methods that are standard in the art. […] The DG-031 is then measured by liquid chromatography and/or mass spectrometry and the measured concentration is compared to a standard curve.
# After completion of the double-blind study reported herein an open-label randomized study was conducted in an independent cohort but with same eligibility criteria and measuring several of the same biomarkers. […] Each patient was on drug for 8 days; there was no placebo group. The primary objective of this study was to determine pharmacokinetic parameters of DG-031 in three different doses, as well as to assess the pharmacokinetic/pharmacodynamic relationship between DG-031, LTB4 and MPO.
# The additional phase II study was conducted to compare a 750 mg total daily dose administered in a BID or TID dosing regimen.
# [1] = system: LTB4 production (ex vivo); assay: Study DG-031-203 open label dose ranging: capacity for LTB4 production ex vivo; format: in vivo, human
# Method: (§1) The study also collected information on the dose-related effect of DG-031 on capacity for LTB4 production (ex vivo), plasma MPO, and serum-CRP. […] The pattern observed supported a concentration dependent pharmacologic effect of DG-031 on capacity for LTB4 production measured ex vivo. The effects on LTB4 production amounted to a 30% (p=0.016) and 25% (p=0.094) reduction with the 375 mg BID and 250 mg TID doses, respectively.
# [2] = system: MPO release by neutrophils and other cells in human whole blood; assay: In vitro MPO release in human whole blood after ionomycin stimulation; format: cell-based
# Method: (§2) Neutrophils and other cells in human whole blood respond in vitro to activation by a calcium ionophore (e.g., ionomycin), with an increase in LTB4 production and with coupled release of MPO stimulated in part by LTB4 production in the assay. The effect of DG-031 on the capacity for production of LTB4 in vitro after ionomycin stimulation was evaluated at concentrations ranging from 0.1 μM up to 240 μM.
# MPO = assay: Study DG-031-203 open label dose ranging: plasma MPO; format: in vivo, human
# Method: as §1
# CRP [3] = assay: Study DG-031-203 open label dose ranging: serum CRP; format: in vivo, human
# Method: as §1
# [4] = system: LTB4 production in human whole blood; assay: In vitro LTB4 production in human whole blood after ionomycin stimulation; format: cell-based
# Method: as §2
# [5] = healthy volunteers, cited from earlier work
# CRP [6] = assay: Study DG-031-201 cross-over trial: Hs-CRP in serum; format: in vivo, human; details: for CRP: Study 201, 2-6 wks
# Method: Patients who met the study eligebility criteria were enrolled and randomized into 3 different dose-level groups: (1) 64 patients on 250 mg/day therapy with DG-031 (250 mg q.d.), vs placebo; (2) 64 patients on 500 mg/day therapy with DG-031 (250 mg b.i.d.) vs placebo; and (3) 63 patients on 750 mg/day therapy with DG-031 (250 mg t.i.d.) vs placebo. […] All patients received 3 tablets per day. Treatment periods, 4 weeks in duration each, were separated by a 2-week washout period. The placebo tablets were identical in shape, color, form and taste to the active tablets except that they contained no active drug ingredients. Treatment with DG-031 or placebo was in addition to the subject's standard care, including all medications and treatment plan as prescribed by the subject's cardiologist prior to enrolment. A total of 191 subjects were enrolled, with 172 completing all 8 visits or 8 patients short of the target of 180 patients.
# The primary objective was to determine whether the FLAP inhibitor has a statistically significant effect, compared to placebo, on one or more biomarkers of MI risk, including: (1) ionomycin-induced LTB4 and MPO release by neutrophils ex vivo; (2) MPO, CRP, N-tyrosine, Lp-PLA2 or amyloid A in serum, or (3) LTE4 in urine. The secondary objective was to determine whether the effect of DG-031 was dose-dependent. The tertiary objective was to assess other biomarkers (See Results). Evaluation of safety and tolerability of the drug was also a primary endpoint.
# All data were analyzed according to a pre-established statistical analysis plan (SAP) and by intention-to-treat (ITT). Each arm of the study, as well as pooled sets (combining dose levels), was considered for the primary analysis. Each such set is an AB/BA cross-over design and in the primary analysis of efficacy, the levels of biomarkers of MI risk at the end of the treatment periods (visits 4 and 7) were used as primary response variables. The difference between DG-031 and placebo treatment was the primary outcome, assessed separately for each of the biomarkers. Treatment effect was tested using a two-sample t-test on the period differences for suitably transformed response variables, under an assumption of normality of the transformed data. We report treatment effect as one half of the observed mean differences in the two-sample t-test, with a 95% CI. No pre-tests for carry-over effect were performed as a part of the primary analysis. Tests for carry-over were done and are reported separately from results of primary analysis. All hypotheses were tested at a two-sided nominal significance level of 0.05 and p-values based on t-tests are reported. In addition, for the primary efficacy endpoints where the effects of the two highest doses on 10 primary variables were studied, a randomization test was performed which corrects for multiple testing and ensures that the key results are not affected by distributional concerns. In particular, 1 million permutations of the patients into the different study tracks were performed, generating a reference distribution for the maximum of the 10 t-statistics of the biomarkers under the null hypothesis of no drug effect. By comparing the observed t-statistic of each of the 10 biomarkers to this reference distribution, empirical p-values were computed. […]
smiles,measurement,setting,value
"O=C(O)[C@@H](c1ccc(OCc2ccc3ccccc3n2)cc1)C1CCCC1 [DG-031, (R)-(+)-alpha-cyclopentyl-4-(2-quinolinylmethoxy)-Benzeneacetic acid]",half-life,"clinical; Dominant half-life, humans",2.5 to 3 h
same,half-life,"clinical; Slower half-life, fraction of the dose with slower elimination",10 to 15 h
same,LTB4 production,"[1]; 250 mg TID, St. 203",−25% (St. 203)
same,Reduction of LTB4 production ex vivo,"[1]; 250 mg TID, p=0.094",25%
same,LTB4 production,"[1]; 375 mg BID, Study 203, 2 hours, p = 0.016",−30%
same,Reduction of LTB4 production ex vivo,"[1]; 375 mg BID, p=0.016",30%
same,LTB4 production,"[1]; 375 mg QD, Study 203, 2 hours, NS",−16%
same,Concentration at which MPO release is maximally inhibited in vitro,[2],~2 μg/ml and about 6 μM
same,MPO in plasma,"MPO; 250 mg TID, St. 203, 6 hours, P < 0.001",−37% (St. 203)
same,Drop of plasma MPO levels,"MPO; 250 mg t.i.d., 6 hours after intake, [24%,47%], p<0.001",37%
same,MPO in plasma,"MPO; 375 mg BID, Study 203, 6 hours, NS",−24%
same,Lowering of plasma MPO levels,"MPO; 375 mg BID, p=0.067",24%
same,MPO in plasma,"MPO; 375 mg QD, Study 203, 6 hours",No effect
same,"Reduction in CRP levels, high CRP group","CRP [3]; 250 mg TID, CRP above median (1.4 mg/L) at entry, P=0.014",48%
same,CRP,"CRP [3]; 250 mg TID, St. 203, 1 wk, p = 0.07",37% (St. 203)
same,Reduction of serum CRP,"CRP [3]; 250 mg TID, after one week of therapy, all subjects, follow-up study 203, [9%,57%]",38%
same,CRP,"CRP [3]; 375 mg BID, Study 203",No effect
same,Change in CRP,"CRP [3]; 375 mg BID, all subjects, one week, p=0.94",−1%
same,"Reduction of CRP, high CRP group","CRP [3]; 375 mg BID, p=0.16, not significant",31%
same,CRP,"CRP [3]; 375 mg QD, Study 203, 1 wk, p = 0.021",−28%
same,Expected reduction of capacity for LTB4 production at peak concentration,"[4]; 250 mg TID peak, assuming ex vivo parallels in vitro response",about 65%
same,Expected reduction of capacity for LTB4 production at Cmin,"[4]; 250 mg TID, concentrations above 2-3 μg/ml, assuming ex vivo parallels in vitro response",≥ 30%
same,IC50,"[4]; human whole blood, ionomycin stimulation, read-out: in vitro IC50, capacity for LTB4 production",~3 µM and ~1.1 µg/mL
same,Safety and tolerability,"[5]; total daily dose 100, 200, 250, 300, 500, 750 and 1000 mg, less than 14 days",safe and well tolerated
same,Safety and tolerability,"[5]; total daily doses 500 mg and 1000 mg, 14-42 days",safe and well tolerated
same,Reduction in CRP,"CRP [6]; 250 mg BID and TID, end of wash-out period (week 6), p=0.02",25%
same,CRP,"CRP [6]; 250 mg BID, p = 0.016",−24%
same,CRP,"CRP [6]; 250 mg QD, NS",−6%
same,Persistence of CRP reduction after week 6,CRP [6]; after end of wash-out period,4 weeks
same,Reduction of CRP,"CRP [6]; higher two dose groups (250 mg BID and 250 mg TID), at 2 weeks, p=0.07, not significant",16%
